The values that follow come from ChEMBL document CHEMBL2407067, “Pyridone-conjugated monobactam antibiotics with gram-negative activity” (J Med Chem, 2013).

The nature of data set [1]: Inhibition of PBP3 in Pseudomonas aeruginosa ATCC 27853 after 20 mins by fluorescence assay.
Data set [2] has as its system Acinetobacter baumannii. The data set can be described thus: Antibacterial activity against Acinetobacter baumannii AB-3167 by broth microdilution method. The format is functional. (Broth dilution looks for growth in wells or tubes with falling amounts of substance.)
The nature of data set [3]: Inhibition of PBP2 in Pseudomonas aeruginosa ATCC 27853 after 20 mins by fluorescence assay.
The subject of data set [4] is Klebsiella pneumoniae. The data set is described as follows: Antibacterial activity against Klebsiella pneumoniae 1487-07 by broth microdilution method. The format is functional.
Data set [5] is described as follows: Inhibition of PBP1b in Pseudomonas aeruginosa ATCC 27853 after 20 mins by fluorescence assay.
Data set [6] in a line: Inhibition of PBP1a in Pseudomonas aeruginosa ATCC 27853 after 20 mins by fluorescence assay.
Data set [7] deals with Pseudomonas aeruginosa. The data set can be described thus: Antibacterial activity against Pseudomonas aeruginosa 1042-06 by broth microdilution method. The format is functional.
Data set [8] is described as follows: Fraction unbound in mouse plasma. The format is ADME, cell-free.
For data set [9], the system named is Klebsiella pneumoniae. The data set is described as follows: Antibacterial activity against Klebsiella pneumoniae 1000-02 by broth microdilution method. The format is functional.
A short description of data set [10]: Plasma clearance in Wistar Han rat at 1 mg/kg, iv by LC/MS/MS analysis. The format is ADME, organism-based. Also on record: dose 1 mg/kg, route intravenous.
A short description of data set [11]: Fraction unbound in human plasma. The format is ADME, cell-free.
Data set [12] deals with Pseudomonas aeruginosa. The data set can be described thus: microbe, parasite or virus in culture. Particulars: 1091-05.
Description: Antibacterial activity against Pseudomonas aeruginosa 1091-05 by broth microdilution method
Data set [13] deals with Rattus norvegicus. The data set is described as follows: Intrinsic clearance in Wistar Han rat at 1 mg/kg, iv by LC/MS/MS analysis. The format is ADME, organism-based. Set-up: dose 1 mg/kg, route intravenous. The note with it: in vivo.
Data set [14] is described as follows: Fraction unbound in rat plasma. The format is ADME, cell-free.
In data set [15] the test system is Escherichia coli. The data set can be described thus: Antibacterial activity against Escherichia coli expressing defined beta-lactamase by broth microdilution method. The format is functional.
The test system of data set [16] is Pseudomonas aeruginosa. The data set is described as follows: Antibacterial activity against Pseudomonas aeruginosa expressing metallo-beta-lactamase by broth microdilution method. The format is functional.
Data set [17] relates to Escherichia coli. The data set is described as follows: Antibacterial activity against Escherichia coli expressing CTX-M by broth microdilution method. The format is functional.
Data set [18] deals with Escherichia coli. The data set is described as follows: Antibacterial activity against Escherichia coli expressing ESBL by broth microdilution method. The format is functional.
The test system of data set [19] is Klebsiella pneumoniae. The data set can be described thus: Antibacterial activity against Klebsiella pneumoniae expressing ESBL by broth microdilution method. The format is functional.
Data set [20] relates to Acinetobacter sp. The data set can be described thus: Antibacterial activity against Acinetobacter spp. by broth microdilution method. The format is functional.
The test system of data set [21] is Pseudomonas aeruginosa. The data set is described as follows: Antibacterial activity against Pseudomonas aeruginosa from cystic fibrosis patients by broth microdilution method. The format is functional.
Data set [22] has as its system Klebsiella pneumoniae. The data set can be described thus: Antibacterial activity against Klebsiella pneumoniae expressing KPC by broth microdilution method. The format is functional.
The test system of data set [23] is Klebsiella pneumoniae. The data set is described as follows: Antibacterial activity against Klebsiella pneumoniae expressing defined beta-lactamase by broth microdilution method. The format is functional.

As a reminder, the IC50 is the point on the concentration scale where inhibition reaches its midpoint. Lower therefore signals higher potency. By fraction unbound is commonly meant the share of the substance not bound to proteins or other matrix. As usually defined, the clearance is a measure of how efficiently the substance is removed, as volume per time. In general, MIC50 refers to an inhibitory concentration at the 50% level, which refers to growth in some studies and to a panel of isolates in others. A high value points to lower susceptibility. The MIC90 is an inhibitory concentration at the 90% level, which refers to growth in some studies and to a panel of isolates in others. Read a low MIC90 as higher susceptibility.

Molecules are shown by their SMILES. ≈ marks a conversion by molar mass, not a printed value. Where only a bound is given, the exact number is not on record here.

`Nc1nc(/C(=N/OC2(C(=O)O)CCC2)C(=O)N[C@@H]2C(=O)N(S(=O)(=O)O)[C@@H]2CNC(=O)NCc2cc(=O)c(O)cn2O)cs1`: the IC50 in [1] is 66 nM; in data set [3] it was > 300000 nM; in data set [5] it was 2460 nM; in data set [6] it was 340 nM. Further, the MIC in data set [2] was 0.125 µg/mL (≈ 0.194 µM); in [4], 0.5 µg/mL (≈ 0.776 µM); in [7], 1 µg/mL (≈ 1.55 µM).
With `CC(C)(O/N=C(\C(=O)N[C@@H]1C(=O)N(S(=O)(=O)[O-])[C@@H]1CNC(=O)OCc1cc(=O)c(O)cn1O)c1csc(N)n1)C(=O)[O-].[Na+].[Na+]`, the values for the fraction unbound in [8], in [11] and in data set [14] were 0.72, 0.51 and 0.61, respectively. The MIC in data set [2] was 0.125 µg/mL; in data set [9], 4 µg/mL; in data set [12], 0.25 µg/mL; in data set [7], 2 µg/mL. The molecule further came in with a clearance in data set [10] of 14.2 mL/min/kg. The CL in [13] was determined as 29 mL/min/kg.
On to `NCC[C@H](O)C(=O)N[C@@H]1C[C@H](N)[C@@H](O[C@H]2O[C@H](CN)[C@@H](O)[C@H](O)[C@H]2O)[C@H](O)[C@H]1O[C@H]1O[C@H](CO)[C@@H](O)[C@H](N)[C@H]1O` [AMIKACIN], for which the MIC50 was 1 µg/mL (≈ 1.71 µM) in data set [15]; > 64 µg/mL in data set [16]; 8 µg/mL (≈ 13.7 µM) in data set [17]; 8 µg/mL (≈ 13.7 µM) in data set [18]; 4 µg/mL (≈ 6.83 µM) in data set [19]; 4 µg/mL (≈ 6.83 µM) in data set [20]. For the same molecule, the MIC50 in data set [21] stood at 8 µg/mL (≈ 13.7 µM); in data set [22], 32 µg/mL (≈ 54.6 µM); in data set [23], 4 µg/mL (≈ 6.83 µM). Further, the MIC90 in [15] was 16 µg/mL (≈ 27.3 µM); in [16] it was > 64 µg/mL; in data set [17] it was 32 µg/mL (≈ 54.6 µM); in [18], 64 µg/mL (≈ 109 µM); in data set [19], 64 µg/mL (≈ 109 µM); in [20], > 64 µg/mL. Further, the MIC90 in data set [21], in data set [22] and in data set [23] was > 64 µg/mL throughout. In addition, the MIC in [2] turned out to be 1 µg/mL (≈ 1.71 µM); in [4], 64 µg/mL (≈ 109 µM); in data set [12], 2 µg/mL (≈ 3.42 µM); in data set [7], 8 µg/mL (≈ 13.7 µM).
With `C[C@H]1[C@H](NC(=O)/C(=N\OC(C)(C)C(=O)O)c2csc(N)n2)C(=O)N1S(=O)(=O)O` [AZTREONAM], the MIC50 came out at 4 µg/mL (≈ 9.19 µM) in [15]; 8 µg/mL (≈ 18.4 µM) in data set [16]; 64 µg/mL (≈ 147 µM) in [17]; 64 µg/mL (≈ 147 µM) in [18]; 32 µg/mL (≈ 73.5 µM) in data set [19]; 32 µg/mL (≈ 73.5 µM) in data set [20]. Further, the figures for the MIC50 in data set [21], in data set [22] and in data set [23] were 8 µg/mL (≈ 18.4 µM), > 64 µg/mL and 64 µg/mL (≈ 147 µM), respectively. Further, the MIC90 was > 64 µg/mL in data set [15]; 16 µg/mL (≈ 36.7 µM) in data set [16]; > 64 µg/mL in data set [17]; > 64 µg/mL in data set [18]; > 64 µg/mL in [19]; > 64 µg/mL in data set [20]. Further, the results for the MIC90 in data set [21], in data set [22] and in data set [23] were 64 µg/mL (≈ 147 µM), > 64 µg/mL and > 64 µg/mL, respectively. Also, the IC50 in [1] is 8 nM; in data set [3] it was > 300000 nM; in data set [5] it was 2870 nM; in data set [6], 3340 nM. Also, the MIC is 4 µg/mL (≈ 9.19 µM) in data set [2]; > 64 µg/mL in [9]; > 64 µg/mL in [4]; 4 µg/mL (≈ 9.19 µM) in [12]; 64 µg/mL (≈ 147 µM) in [7].
